{"source": "patent US20050059645A1", "about": "“Methods for the treatment of male and female sexual dysfunction” (priority 2003, published 2005)", "key": {"[1]": {"system": "ovariectomized female rats", "test": "Lordosis behavior test (lordosis quotient) in ovariectomized female rats", "type": "in vivo, rat", "protocol": "Thus, lordosis was selected as an indicator of restoration of female sexual function in ovariectomized female rats and an appropriate indicator for alleviating symptoms of female sexual dysfunction.\nAdult female Sprague Dawley rats (220-250 g) from Charles River Hungary Ltd., Godollo, Hungary, were used. Animals were kept in community cages (4 animals/cage) in a climate-controlled room (23±2° C., 50-60% humidity), with a 14 hour light, 10 hour dark cycle of artificial lighting, using reversed light/dark cycle. Food and water were available ad libitum.\nAfter a minimum five-day acclimatization period, animals were ovariectomized under ether anesthesia, then were left to recover for 3 weeks before testing (reconvalescence). All animals were treated in accordance with the guidelines of the European Communities Council Directive (86/609/EEC) and studies were permitted by the Institutional Animal Care Commission.\nEstradiol benzoate and progesterone were obtained from Sigma Chemical Co. Inc., Budapest, Hungary. […] E2-CDS as a 3% complex with HPβCD (E2-CDS-CD) was dissolved in distilled water and diluted with 27% HPβCD solution. E2-CDS-CD was synthesized by Alchem Laboratories Corporation, Alachua, Fla., US.\n(§1) After recovery from surgery, ovariectomized female rats were divided into four groups and treated once a day for five days intravenously, via a bolus injection through the tail vein, as follows: (1) control, 27% HPβCD solution; (2) 0.003 mg/kg E2-CDS dissolved in 27% HPβCD solution; (3) 0.01 mg/kg E2-CDS dissolved in 27% HPβCD solution; and (4) 0.03 mg/kg E2-CDS dissolved in 27% HPβCD solution. A minimal number of ovariectomized (8 to 12) females were used per group. Intravenous treatments either with E2-CDS or HPβCD (controls) were carried out daily for 5 days beginning 2 days prior to the first day of behavior observations, in a volume of 0.05 ml/100 g body weight.\nThe behavior test was conducted in a plexiglass observation cage during the dark cycle. During behavioral observations, only a dim red light was on.\nAn experienced and active male rat was placed in the arena 5 minutes prior to the female. […] The lordosis quotient (LQ) expresses the estrogen effect on sexual receptivity and was calculated as follows: LQ=100×number of lordoses/10 mounts The observation of the sexual behavior of each female was carried out, in the case of E2-CDS, every day for 22 days; in the case of EB, investigations were carried out every day for 10 days. […] Citrated blood samples were taken by retro-orbital sinus puncture under light ether anesthesia. The samples were stored at 4° C. for one hour, then centrifuged at 1000 g for 10 minutes. Plasma was separated and stored at −80° C. until assayed. Plasma LH concentrations from individual samples were measured by double antibody radioimmunoassay kits obtained from Amersham Pharmacia Biotech, Rome, Italy. […] The limit of detection was 15 pg/ml.\nBehavioral changes were analyzed using the Mann-Whitney U test (Siegel, Nonparametric Statistics for the Behavioral Sciences, New York; McGraw-Hill Book Company, Inc., 1956). The Fisher exact test was used for percentage comparisons (Zar, Biostatistical Analysis, Prentice Hall, Inc., Englewood Cliffs, N.J., 1974). Serum LH data were analyzed for each time and treatment group by analysis of variance (ANOVA) followed by Bonferroni posthoc test."}, "LH": {"system": "LH", "test": "Plasma LH by radioimmunoassay in ovariectomized female rats", "type": "in vivo, rat", "details": "0.003, 0.01 and 0.03 mg/kg i.v. daily for 5 days", "protocol": "as §1\nAn experienced and active male rat was placed in the arena 5 minutes prior to the female. […] The lordosis quotient (LQ) expresses the estrogen effect on sexual receptivity and was calculated as follows: LQ=100×number of lordoses/10 mounts The observation of the sexual behavior of each female was carried out, in the case of E2-CDS, every day for 22 days; in the case of EB, investigations were carried out every day for 10 days. […] Citrated blood samples were taken by retro-orbital sinus puncture under light ether anesthesia. […] Plasma LH concentrations from individual samples were measured by double antibody radioimmunoassay kits obtained from Amersham Pharmacia Biotech, Rome, Italy. […]"}, "castrated male rats": {"system": "castrated male rats", "details": "cited from earlier work"}, "[2]": {"details": "estradiol itself, postmenopausal volunteer; cited from earlier work"}, "[3]": {"details": "cited from earlier work"}, "[4]": {"details": "0.01 mg/kg i.v. once a day for 5 days"}, "[5]": {"details": "0.03 mg/kg i.v. once a day for 5 days"}}, "note": "Where two headings read alike, the source gives them in different places."}
{"smiles": "C[C@]12CC[C@@H]3c4ccc(OC(=O)c5ccccc5)cc4CC[C@H]3[C@@H]1CC[C@@H]2O", "note": "[estradiol benzoate]", "values": [{"measurement": "lordosis quotient, effect", "setting": "[1]; 0.003 mg/kg i.v. once a day for 5 days", "result": "slightly enhanced the lordosis quotient, but these effects were not statistically significant"}, {"measurement": "LQ increase compared to E2-CDS", "setting": "[1]; [4]", "result": "about 3 times less"}, {"measurement": "lordosis quotient LQ, effect", "setting": "[1]; [4]", "result": "slightly increased the LQ from day 3 to day 10"}, {"measurement": "statistical significance of LQ increase", "setting": "[1]; [4]", "result": "not statistically significant"}, {"measurement": "LQ value relative to E2-CDS", "setting": "[1]; [5]", "result": "about three times lower"}, {"measurement": "duration of LQ enhancement", "setting": "[1]; [5]", "result": "from day 3 to day 8"}, {"measurement": "lordosis quotient LQ, effect", "setting": "[1]; [5]", "result": "significantly enhanced"}, {"measurement": "plasma LH levels, effect", "setting": "LH", "result": "none of the tested dosages of estradiol benzoate gave statistically significant LH suppression"}, {"measurement": "masculine sexual behavior", "setting": "castrated male rats; 10 μg/day systemically for 9 to 11 days (Pfaff 1970)", "result": "increased mounting, intromissions and ano-genital sniffing and reduced mounting latency"}, {"measurement": "ejaculations", "setting": "castrated male rats; 100 μg/day for 24 to 28 days (Sodersten 1973)", "result": "less affected by estradiol benzoate then by testosterone propionate"}, {"measurement": "mounts and intromissions", "setting": "castrated male rats; 100 μg/day for 24 to 28 days, rats castrated 6 weeks previously (Sodersten 1973)", "result": "equivalent to those observed following similar treatment with testosterone propionate"}]}
{"smiles": "C[C@]12CC[C@@H]3c4ccc(O)cc4CC[C@H]3[C@@H]1CC[C@@H]2O", "note": "[estradiol]", "values": [{"measurement": "initial serum estradiol level", "setting": "[2]", "result": "too high to calculate with the standard curve"}]}
{"smiles": "C[C@]12CC[C@H]3[C@@H](CCC4=CC(=O)CC[C@@]43C)[C@@H]1CC[C@@H]2O", "note": "[testosterone]", "values": [{"measurement": "estradiol formed (of recovered steroids)", "setting": "[3]; amygdala (Michael 1986)", "result": 64, "unit": "%"}, {"measurement": "estradiol formed (of recovered steroids)", "setting": "[3]; hypothalamus (Michael 1986)", "result": 61, "unit": "%"}, {"measurement": "radioactivity reported to be estradiol", "setting": "[3]; hypothalamus, preoptic area and amygdala (Bonsall 1983)", "result": "≥ 50", "unit": "%"}, {"measurement": "estradiol formed (of recovered steroids)", "setting": "[3]; preoptic area (Michael 1986)", "result": 43, "unit": "%"}]}
